Data taken from patent publication US20250320246A1, “3-AZASTEROID COMPOUNDS FOR THE TREATMENT OF DISEASES RELATED TO MITROCHONDRIAL FUNCTION” (NZP UK LIMITED, priority 2022, published 2025).

Columns and labels:
[1] = system: mitochondrial respiratory chain complex I; assay: Complex I assay in mouse whole brain homogenate after IV dosing; format: in vivo; details: wild type mouse, 2 mg/kg IV
Method: Ex vivo mice brain was homogenated in a buffer of 250 mM sucrose, 20 mM HEPES, 3 mM EDTA, pH 7.5 at 4° C. Homogenisation was carried out using a Dounce homogenizer, for cortex samples, and by repetitive passage through a 0.5 mm syringe for isolated striatum. Samples were then incubated with 30 μl of detergent from the AbCam colorimetric Complex I assay kit on ice for 20 minutes. Samples are then centrifuged at 13,000 rpm for 30 mins. Triplicate samples per condition were blocked using the kit blocking buffer on the AbCam colorimetric Complex I assay kit plate for 3 hours. Samples are then washed using the kit wash buffer 3 times before the addition of the kit assay buffer containing NADH and colorimetric dye. The assay plate is read on a plate reader in a kinetic assay programme reading 450 nm in a 30 second interval for 50 minutes.
By 12 hours post injection complex I activity began to reduce again and was elevated by 98% above control. By 24 hours post injection, complex I activity was still elevated by 35% above control levels.

[2] = system: iNeurons from sPD patients; assay: Mitochondrial reactive oxygen species (ROS) in iNeurons from sPD patients; format: cell-based, human; details: sPD patient iNeurons treated; untreated sPD patients 115
Method: (§1) The fibroblasts lines and iNPC lines have previously been characterised and published in Carling et al, 2020.
(§2) Briefly, iNPCs are plated in a 6-well plate and cultured for 2 days in DMEM/F-12 medium with Glutamax™ supplemented with 1% NEAA, 2% B27 (Gibco) and 2.5 μM of DAPT. On day 3, DAPT is removed and the medium is supplemented with 1 μM smoothened agonist (SAG) and FGF8 (75 ng/ml) for additional 10 days. Neurons are replated at this stage. Subsequently SAG and FGF8 are withdrawn and replaced with BDNF (30 ng/ml), GDNF (30 ng/ml), TGF-b3 ([…]) and dcAMP (2 mM, Sigma) for 15 days, as previously described Schwartzentruber et al, 2020 and Carling et al, 2020. Dopaminergic neurons were treated with compounds at concentrations of 0.1 nM, 1 nM, 3 nM, 10 nM, 30 nM and 100 nM dosing every 3 days for the last 12 days of differentiation.
iNeurons were treated every 3 days for the last 12 days of the differentiation protocol. Cells are plated in 96 well plates; for live imaging cells are incubated for one hour at 37° C. with 80 nM tetramethlyrhodamine (TMRM), 1 μM LysoTracker® Green (Invitrogen) and Hoechst Stain solution (Sigma) at 1 μM before imaging using Opera Phenix™. Cellular ATP measurements are undertaken using ATPlite kit (Perkin Elmer) as per manufacturer's instructions. Mitochondrial reactive oxygen species generation was assessed using mitochondrial NpFR2 (probe; a kind gift from Dr Liz New, University of Sydney, Australia) at 20 μM and Hoechst stain solution at 1 μM for 30 mins at 37° C., then the dyes are removed and cells images using Opera Phenix™. Images generated from the live imaging experiments were analysed using Harmony® (Perkin Elmer software). We developed protocols in order to segment nucleus, cell boundary and processes, mitochondria, lysosomes, autophagosomes. We only analysed the z projection images collected from the z stacks.

[3] = system: iNeurons from sPD patients; assay: Activated caspase 3 levels (apoptosis) in iNeurons from sPD patients; format: cell-based, human
Method: as §1, §2
Cells are plated into 96 well plates and fixed using 4% paraformaldehyde for 30 minutes. After PBS washes cells are permeabilised using 0.1% Triton™ X-100 for 10 minutes and blocked using 5% goat serum for 1 hour. Cells are incubated with primary antibodies βIII tubulin (Millipore); activated caspase 3 (Cell Signaling); at 4° C. for 16 hours. Cells are washed using PBS-Tween® and incubated with Alexa Fluor™-conjugated secondary antibodies 488 and 568 (Invitrogen) and Hoescht (Sigma) 1 μM prior to imaging. Imaging was performed using the Opera Phenix™ high content imaging system (Perkin Elmer).

[4] = system: sporadic Parkinson's disease patient fibroblast lines; assay: Mitochondrial respiration (oxygen consumption rate), Seahorse Mito Stress test; format: cell-based, human; details: 50 nM for 24 hours, sPD fibroblasts
Method: Oxygen consumption rate (OCR) was measured by the Agilent Seahorse Mito Stress test using a 24-well Agilent Seahorse XF analyzer machine (Agilent). Human fibroblasts where plated at a density of 60,000 cells per well. Cells were treated with compound 50 nM for 24 hours prior to measurement. 3 measurements of OCR were taken in each state: basal state, after addition of oligomycin (0.5 μM), FCCP (0.5 μM) and rotenone (1 μM). A cell count was then done on a fixed assay plate using a Hoechst dye (1 μM). Data presented is normalized to cell number.

[5] = system: sporadic PD patient fibroblasts; assay: Mitochondrial membrane potential (MMP, TMRM) in sporadic PD patient fibroblasts; format: cell-based, human; details: Homo sapiens, Fibroblast, 24 h, 3 sporadic PD patient fibroblasts

Q: How did the “complex I activity” value ([1]; 4 and 8 hours post injection) turn out when C[C@H](CCCC(=O)O)[C@H]1CC[C@H]2[C@@H]3[C@@H](O)C[C@@H]4CNCC[C@]4(C)[C@H]3CC[C@]12C.Cl [Compound 28b, 3-Aza-7β-hydroxy-25-homo-5β-cholan-25-oic acid hydrochloride] was run?
A: remained elevated to a similar extent

Q: And the “complex I activity increase” value ([1]; 1 hour after dosing)?
A: 125%

Q: And the “complex I activity elevated above control” value ([1]; 12 hours post injection)?
A: 98%

Q: And the “complex I activity elevated above control levels” value ([1]; 24 hours post injection)?
A: 35%

Q: What about the “ROS normalisation (% of controls)” value [2] of the same compound?
A: 109 % of controls

Q: And the “apoptosis levels (as measured by activated caspase 3 levels), in words” value ([3]; sPD derived dopaminergic neurons)?
A: reducing apoptosis levels

Q: What about the “Activated caspase 3 levels” value ([3]; sPD patient iNeurons treated, untreated sPD patients 162) of the same compound?
A: 138 % of level in iNeurons from Controls

Q: What about the basal mitochondrial respiration ([4]; p<0.05, vehicle sPD reduced 30% vs controls) of the same compound?
A: increases basal respiration in the sPD fibroblasts to control levels

Q: And the ATP linked respiration ([4]; to a lesser extent, vehicle sPD reduced 23% vs controls)?
A: Increases are also seen

Q: What about the spare respiratory capacity ([4]; to a lesser extent, vehicle sPD reduced 42% vs controls) of the same compound?
A: Increases are also seen

Q: And the EC50 ([5]; 8-point range 0.06 nM-300 nM)?
A: 4.03 nM

Q: What about the Emax ([5]; max response with highest dose of compound (300 nM), read-out: MMP % of vehicle, top %) of the same compound?
A: 101%

Q: What about the activity at 60 pM ([5]; max response with lowest dose of compound (0.06 nM), read-out: MMP % of vehicle, bottom %) of the same compound?
A: 92.8%
